ChEMBL document CHEMBL3885881, “DrugMatrix”

Organism: Rattus norvegicus
Test: DrugMatrix - Regimen: Daily Repeat
Format: toxicity, organism-based, Sprague-Dawley
Set-up: regimen Daily Repeat, gender Male, age 6-8 weeks
Details: in vivo, po, route oral GAVAGE, vehicle .5 % CMC; for CREATINE PHOSPHOKINASE / CREATININE / GLUCOSE / LACTATE DEHYDROGENASE / LIPASE / PHOSPHORUS / POTASSIUM / SODIUM / TOTAL BILIRUBIN / TOTAL PROTEIN / URIC ACID / ALANINE AMINOTRANSFERASE / ALBUMIN / ALKALINE PHOSPHATASE / ASPARTATE AMINOTRANSFERASE / BLOOD UREA NITROGEN / CHLORIDE / CHOLESTEROL: tissue Plasma; for ABSOLUTE BASOPHIL / ABSOLUTE EOSINOPHIL / ABSOLUTE LYMPHOCYTE / ABSOLUTE MONOCYTE / ABSOLUTE SEGMENTED NEUTROPHIL / BASOPHIL / EOSINOPHIL / ERYTHROCYTE COUNT / HEMATOCRIT / HEMOGLOBIN / LEUKOCYTE COUNT / LYMPHOCYTE / MEAN CORPUSCULAR HEMOGLOBIN / MEAN CORPUSCULAR HEMOGLOBIN CONCENTRATION / MEAN CORPUSCULAR VOLUME / MONOCYTE / NEUTROPHIL / PLATELET COUNT: tissue Blood
[1] = 0 mg/kg, 2184 h, dose level Control, time 91 day
[2] = 0 mg/kg, […], dose level Control, time 28 day
[3] = 80 mg/kg, 120 h, dose level Low, time 5 day
[4] = 80 mg/kg, 2184 h, dose level Low, time 91 day

For `O=c1cc(-c2ccccc2)oc2ccc3ccccc3c12` [BETA-NAPHTHOFLAVONE], the “CREATINE PHOSPHOKINASE” value [1] was 91.22 u/L, the CREATININE [1] was 0.61 mg/dL and the GLUCOSE [1] was 142.33 mg/dL. For the same molecule, the “LACTATE DEHYDROGENASE” value [1] was 81.67 u/L, the LIPASE [1] was 13 u/L and the PHOSPHORUS [1] was 7.54 mg/dL. The POTASSIUM [1] was 6.27 MEQ/L, the SODIUM [1] was 149.89 MEQ/L and the “TOTAL BILIRUBIN” value [1] was 0.19 mg/dL. The “TOTAL PROTEIN” value [1] was 7.12 G/DL, the “URIC ACID” value [1] was 0.97 mg/dL and the ABSOLUTE BASOPHIL [2] was 150 cells/µL. It also gave an ABSOLUTE EOSINOPHIL [2] of 54 cells/µL, an ABSOLUTE LYMPHOCYTE [2] of 8890 cells/µL and an ABSOLUTE MONOCYTE [2] of 190 cells/µL. For the same molecule, the ABSOLUTE SEGMENTED NEUTROPHIL [2] was 2250 cells/µL, the BASOPHIL [2] was 1.26% and the EOSINOPHIL [2] was 0.46%. The “ERYTHROCYTE COUNT” value [2] was 8.34 x10E6/uL, the HEMATOCRIT [2] was 48.66% and the HEMOGLOBIN [2] was 16.04 G/DL. The “LEUKOCYTE COUNT” value [2] was 11.58 x10E3/uL, the LYMPHOCYTE [2] was 76.74% and the “MEAN CORPUSCULAR HEMOGLOBIN” value [2] was 19.2 pg. For the same molecule, the “MEAN CORPUSCULAR HEMOGLOBIN CONCENTRATION” value [2] was 32.92 G/DL, the “MEAN CORPUSCULAR VOLUME” value [2] was 58.32 fL and the MONOCYTE [2] was 1.76%. The NEUTROPHIL [2] was 19.44%, the “PLATELET COUNT” value [2] was 1282.6 x10E3/uL and the “ALANINE AMINOTRANSFERASE” value [2] was 27 u/L. The ALBUMIN [2] was 3.68 G/DL, the “ALKALINE PHOSPHATASE” value [2] was 146.2 u/L and the “ASPARTATE AMINOTRANSFERASE” value [2] was 66.6 u/L. The “BLOOD UREA NITROGEN” value [2] was 12.4 mg/dL, the CHLORIDE [2] was 104.6 MEQ/L and the CHOLESTEROL [2] was 59.6 mg/dL. For the same molecule, the “CREATINE PHOSPHOKINASE” value [2] was 121.8 u/L, the CREATININE [2] was 0.6 mg/dL and the GLUCOSE [2] was 143 mg/dL. The “LACTATE DEHYDROGENASE” value [2] was 87.8 u/L, the LIPASE [2] was 17.4 u/L and the PHOSPHORUS [2] was 8.68 mg/dL. For the same molecule, the POTASSIUM [2] was 6.02 MEQ/L, the SODIUM [2] was 152.8 MEQ/L and the “TOTAL BILIRUBIN” value [2] was 0.26 mg/dL. For the same molecule, the “TOTAL PROTEIN” value [2] was 6.92 G/DL, the “URIC ACID” value [2] was 0.52 mg/dL and the ABSOLUTE BASOPHIL [3] was 80 cells/µL. For the same molecule, the ABSOLUTE EOSINOPHIL [3] was 62 cells/µL, the ABSOLUTE LYMPHOCYTE [3] was 9510 cells/µL and the ABSOLUTE MONOCYTE [3] was 180 cells/µL. For the same molecule, the ABSOLUTE SEGMENTED NEUTROPHIL [3] was 1430 cells/µL, the BASOPHIL [3] was 0.74% and the EOSINOPHIL [3] was 0.56%. For the same molecule, the “ERYTHROCYTE COUNT” value [3] was 7.55 x10E6/uL, the HEMATOCRIT [3] was 45.54% and the HEMOGLOBIN [3] was 15.6 G/DL. The “LEUKOCYTE COUNT” value [3] was 11.31 x10E3/uL, the LYMPHOCYTE [3] was 84.24% and the “MEAN CORPUSCULAR HEMOGLOBIN” value [3] was 20.68 pg. The “MEAN CORPUSCULAR HEMOGLOBIN CONCENTRATION” value [3] was 34.26 G/DL, the “MEAN CORPUSCULAR VOLUME” value [3] was 60.36 fL and the MONOCYTE [3] was 1.58%. The NEUTROPHIL [3] was 12.46%, the “PLATELET COUNT” value [3] was 1331 x10E3/uL and the “ALANINE AMINOTRANSFERASE” value [3] was 31.8 u/L. The ALBUMIN [3] was 3.5 G/DL, the “ALKALINE PHOSPHATASE” value [3] was 221.2 u/L and the “ASPARTATE AMINOTRANSFERASE” value [3] was 79.4 u/L. For the same molecule, the “BLOOD UREA NITROGEN” value [3] was 10.4 mg/dL, the CHLORIDE [3] was 108.8 MEQ/L and the CHOLESTEROL [3] was 59.4 mg/dL. For the same molecule, the “CREATINE PHOSPHOKINASE” value [3] was 166.8 u/L, the CREATININE [3] was 0.52 mg/dL and the GLUCOSE [3] was 110.6 mg/dL. The “LACTATE DEHYDROGENASE” value [3] was 103.8 u/L, the LIPASE [3] was 24.4 u/L and the PHOSPHORUS [3] was 11.66 mg/dL. The POTASSIUM [3] was 6.5 MEQ/L, the SODIUM [3] was 151 MEQ/L and the “TOTAL BILIRUBIN” value [3] was 0.2 mg/dL. The “TOTAL PROTEIN” value [3] was 6.1 G/DL, the “URIC ACID” value [3] was 0.72 mg/dL and the ABSOLUTE BASOPHIL [4] was 410 cells/µL. The ABSOLUTE EOSINOPHIL [4] was 110 cells/µL, the ABSOLUTE LYMPHOCYTE [4] was 11200 cells/µL and the ABSOLUTE MONOCYTE [4] was 290 cells/µL. It also gave an ABSOLUTE SEGMENTED NEUTROPHIL [4] of 3040 cells/µL and a BASOPHIL [4] of 2.71%.
